Laboratory results taken from US12492188B2, “1H-benzo[D]imidazole derivatives as TLR9 inhibitors for the treatment of fibrosis” (BRISTOL-MYERS SQUIBB COMPANY, priority 2020, dated 2025).
Read-outs that look alike come from different tables or passages of the source.

What was measured:
Format in all cases: cell-based
human TLR7 = target: T1, human TLR7 (Homo sapiens, UniProt Q9NYK1); experiment: TLR7 inhibition reporter assay (HEK-Blue cells, secreted embryonic alkaline phosphatase reporter); conditions: HEK-Blue cells overexpressing human TLR7, stimulated with gardiquimod 7.5 μM; read-out: TLR 7 IC50
T1 construct: host or cells: HEK-Blue cells (HEK293-derived reporter line)
T1 sequence (Q9NYK1 27-1049): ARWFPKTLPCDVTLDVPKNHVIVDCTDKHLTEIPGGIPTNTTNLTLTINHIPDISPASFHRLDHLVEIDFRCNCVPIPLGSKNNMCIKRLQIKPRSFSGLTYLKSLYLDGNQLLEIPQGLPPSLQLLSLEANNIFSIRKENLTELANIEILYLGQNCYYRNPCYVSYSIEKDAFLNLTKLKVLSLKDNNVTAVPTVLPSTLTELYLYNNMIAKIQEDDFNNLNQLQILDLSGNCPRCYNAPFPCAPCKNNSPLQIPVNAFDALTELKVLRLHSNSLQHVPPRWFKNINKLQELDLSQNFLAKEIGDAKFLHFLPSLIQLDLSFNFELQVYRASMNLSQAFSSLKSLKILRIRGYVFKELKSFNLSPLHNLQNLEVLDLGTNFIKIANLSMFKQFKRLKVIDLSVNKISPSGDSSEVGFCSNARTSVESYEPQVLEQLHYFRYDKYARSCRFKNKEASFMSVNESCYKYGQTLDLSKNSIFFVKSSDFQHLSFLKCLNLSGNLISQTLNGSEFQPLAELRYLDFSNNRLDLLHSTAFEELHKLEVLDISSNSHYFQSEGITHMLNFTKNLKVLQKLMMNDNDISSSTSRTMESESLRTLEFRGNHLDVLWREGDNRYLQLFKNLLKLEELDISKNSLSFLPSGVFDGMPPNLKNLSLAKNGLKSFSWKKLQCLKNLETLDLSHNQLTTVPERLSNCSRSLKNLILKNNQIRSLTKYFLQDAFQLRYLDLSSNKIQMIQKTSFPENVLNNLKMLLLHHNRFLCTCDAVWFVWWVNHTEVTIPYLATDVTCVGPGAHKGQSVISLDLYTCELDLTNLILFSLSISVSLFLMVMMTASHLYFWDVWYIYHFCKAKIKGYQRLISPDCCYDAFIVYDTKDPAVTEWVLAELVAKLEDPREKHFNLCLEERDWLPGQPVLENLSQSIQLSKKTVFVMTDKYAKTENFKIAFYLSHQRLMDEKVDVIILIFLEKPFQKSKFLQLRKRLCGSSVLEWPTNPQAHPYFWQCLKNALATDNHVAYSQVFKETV
Method in brief: (§1)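 Inhibitors are tested in dose response (0.05 nM–50 μM) on HEK-Blue reporter cells expressing human TLR7, TLR8 or TLR9. After 30 min at room temperature, each line is stimulated with its own agonist (gardiquimod 7.5 μM, R848 15.9 μM or ODN2006 5 nM, final) and SEAP is measured 22 h later.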

human TLR9 = target: T2, human TLR9 (Homo sapiens, UniProt Q9NR96); experiment: TLR9 inhibition reporter assay (HEK-Blue cells, secreted embryonic alkaline phosphatase reporter); conditions: HEK-Blue cells overexpressing human TLR9, stimulated with ODN2006 5 nM
T2 construct: host or cells: HEK-Blue cells (HEK293-derived reporter line)
T2 sequence (Q9NR96 26-1032): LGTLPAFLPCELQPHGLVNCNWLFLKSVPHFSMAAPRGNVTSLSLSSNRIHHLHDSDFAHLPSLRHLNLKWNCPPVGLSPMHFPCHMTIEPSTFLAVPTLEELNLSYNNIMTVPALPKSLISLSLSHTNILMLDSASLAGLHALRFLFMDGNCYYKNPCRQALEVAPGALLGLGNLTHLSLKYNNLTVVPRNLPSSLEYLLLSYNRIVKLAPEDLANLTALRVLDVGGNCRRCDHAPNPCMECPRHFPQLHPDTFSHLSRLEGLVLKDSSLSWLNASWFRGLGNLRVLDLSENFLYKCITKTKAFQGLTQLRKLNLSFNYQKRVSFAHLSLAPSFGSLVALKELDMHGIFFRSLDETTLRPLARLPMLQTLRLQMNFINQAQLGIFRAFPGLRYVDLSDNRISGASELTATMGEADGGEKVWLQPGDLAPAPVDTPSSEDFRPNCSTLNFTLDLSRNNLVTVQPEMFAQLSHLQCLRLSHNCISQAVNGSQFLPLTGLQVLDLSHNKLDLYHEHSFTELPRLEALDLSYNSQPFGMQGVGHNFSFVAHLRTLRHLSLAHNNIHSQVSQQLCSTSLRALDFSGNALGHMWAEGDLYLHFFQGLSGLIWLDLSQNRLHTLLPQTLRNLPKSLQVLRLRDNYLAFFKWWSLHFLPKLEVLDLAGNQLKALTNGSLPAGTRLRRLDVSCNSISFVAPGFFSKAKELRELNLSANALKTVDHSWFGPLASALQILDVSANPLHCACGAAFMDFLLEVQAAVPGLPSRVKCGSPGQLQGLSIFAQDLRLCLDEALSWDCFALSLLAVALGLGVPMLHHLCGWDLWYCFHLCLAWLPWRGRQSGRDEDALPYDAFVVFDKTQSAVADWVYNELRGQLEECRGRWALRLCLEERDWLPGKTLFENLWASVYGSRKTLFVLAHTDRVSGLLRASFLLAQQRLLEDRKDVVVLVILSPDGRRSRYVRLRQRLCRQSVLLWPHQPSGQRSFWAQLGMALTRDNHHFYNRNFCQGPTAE
Method in brief: as §1

human TLR8 = target: T3, human TLR8 (Homo sapiens, UniProt Q9NR97); experiment: TLR8 inhibition reporter assay (HEK-Blue cells, secreted embryonic alkaline phosphatase reporter); conditions: HEK-Blue cells overexpressing human TLR8, stimulated with R848 15.9 μM; read-out: TLR 8 IC50
T3 construct: host or cells: HEK-Blue cells (HEK293-derived reporter line)
T3 sequence (Q9NR97 27-1041): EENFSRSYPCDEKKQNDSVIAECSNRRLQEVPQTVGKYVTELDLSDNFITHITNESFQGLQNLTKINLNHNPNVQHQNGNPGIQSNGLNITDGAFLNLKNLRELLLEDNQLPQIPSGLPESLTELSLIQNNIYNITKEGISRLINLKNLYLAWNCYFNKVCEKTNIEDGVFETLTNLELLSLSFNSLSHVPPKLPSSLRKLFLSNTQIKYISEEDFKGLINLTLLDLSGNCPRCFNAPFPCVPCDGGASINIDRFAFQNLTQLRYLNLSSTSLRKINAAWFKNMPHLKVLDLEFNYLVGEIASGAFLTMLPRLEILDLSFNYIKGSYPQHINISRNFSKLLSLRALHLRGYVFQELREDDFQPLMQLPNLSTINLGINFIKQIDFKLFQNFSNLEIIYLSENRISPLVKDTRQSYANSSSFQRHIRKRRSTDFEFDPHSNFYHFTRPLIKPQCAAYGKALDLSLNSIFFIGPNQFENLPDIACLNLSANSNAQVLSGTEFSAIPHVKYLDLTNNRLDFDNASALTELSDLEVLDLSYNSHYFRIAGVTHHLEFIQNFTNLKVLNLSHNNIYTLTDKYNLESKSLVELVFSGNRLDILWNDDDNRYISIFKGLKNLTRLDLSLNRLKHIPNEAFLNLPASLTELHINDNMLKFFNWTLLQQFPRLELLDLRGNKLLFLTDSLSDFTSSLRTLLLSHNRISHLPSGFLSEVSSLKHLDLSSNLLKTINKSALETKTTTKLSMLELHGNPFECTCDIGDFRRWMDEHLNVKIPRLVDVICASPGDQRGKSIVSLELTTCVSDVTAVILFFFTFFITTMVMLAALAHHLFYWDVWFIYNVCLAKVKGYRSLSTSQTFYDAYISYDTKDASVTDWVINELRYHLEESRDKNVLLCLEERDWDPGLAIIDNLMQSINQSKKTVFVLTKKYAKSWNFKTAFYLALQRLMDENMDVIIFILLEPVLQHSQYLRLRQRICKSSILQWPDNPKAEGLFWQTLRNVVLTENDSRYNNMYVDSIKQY
Method in brief: as §1

[1] = 22 hour incubation, reporter readout

Row | SMILES | IC50 (human TLR7) | IC50 (human TLR9; [1]) | IC50 (human TLR9; read-out: TLR 9 IC50) | IC50 (human TLR8)
1 | CN(C)C1CCN(Cc2ccc(-c3ccc4nc(-c5ccccc5)n(C)c4c3)cc2)CC1 [Example 374, N,N-dimethyl-1-(4-(1-methyl-2-phenyl-1H-benzo[d]imidazol-6-yl)benzyl)piperidin-4-amine] | 0.8 µM | 0.28 µM | 0.279 µM | > 50 µM
2 | CN(C)C1CCN(Cc2ccc(-c3ccc4nc(-c5ccc(S(C)(=O)=O)cc5)n(C)c4c3)cc2)CC1 [Example 375, N,N-dimethyl-1-(4-(1-methyl-2-(4-(methylsulfonyl)phenyl)-1H-benzo[d]imidazol-6-yl)benzyl)piperidin-4-amine] | 1.3 µM | 0.2 µM | 0.203 µM | 0.4 µM
3 | COc1ccc(-c2nc3ccc(-c4ccc(CN5CCC(N(C)C)CC5)cc4)cc3n2C)cc1 [Example 376, 1-(4-(2-(4-methoxyphenyl)-1-methyl-1H-benzo[d]imidazol-6-yl)benzyl)-N,N-dimethylpiperidin-4-amine] | 0.8 µM | 0.21 µM | 0.206 µM | 1.4 µM
4 | CN(C)C1CCN(Cc2ccc(-c3ccc4nc(-c5cccc(F)c5)n(C)c4c3)cc2)CC1 [Example 377, 1-(4-(2-(3-fluorophenyl)-1-methyl-1H-benzo[d]imidazol-6-yl)benzyl)-N,N-dimethylpiperidin-4-amine] | 1.3 µM | 0.35 µM | 0.346 µM | 19.6 µM
5 | CN(C)C1CCN(Cc2ccc(-c3ccc4nc(-c5ccc(F)cc5)n(C)c4c3)cc2)CC1 [Example 378, 1-(4-(2-(4-fluorophenyl)-1-methyl-1H-benzo[d]imidazol-6-yl)benzyl)-N,N-dimethylpiperidin-4-amine] | 2.2 µM | 0.35 µM | 0.349 µM | 17.1 µM
6 | CN(C)C1CCN(Cc2ccc(-c3ccc4nc(-c5ccccc5S(C)(=O)=O)n(C)c4c3)cc2)CC1 [Example 379, N,N-dimethyl-1-(4-(1-methyl-2-(2-(methylsulfonyl)phenyl)-1H-benzo[d]imidazol-6-yl)benzyl)piperidin-4-amine] | 1 µM | 0.098 µM | 0.098 µM | 18.8 µM
7 | CN(C)C1CCN(Cc2ccc(-c3ccc4nc(-c5ccc(S(C)(=O)=O)cc5F)n(C)c4c3)cc2)CC1 [Example 380, 1-(4-(2-(2-fluoro-4-(methylsulfonyl)phenyl)-1-methyl-1H-benzo[d]imidazol-6-yl)benzyl)-N,N-dimethylpiperidin-4-amine] | 1.3 µM | 0.174 µM | 0.174 µM | 0.3 µM
8 | CN(C)C1CCN(Cc2ccc(-c3ccc4nc(-c5ccc(C#N)cc5)n(C)c4c3)cc2)CC1 [Example 383, 4-(6-(4-((4-(dimethylamino)piperidin-1-yl)methyl)phenyl)-1-methyl-1H-benzo[d]imidazol-2-yl)benzonitrile] | 2.2 µM | 0.068 µM | 0.068 µM | 2.3 µM
9 | Cc1cc(-c2ccc(CN3CCC(N(C)C)CC3)cc2)cc2c1nc(-c1ccc(S(C)(=O)=O)cc1)n2C [Example 385, 1-(4-(1,4-dimethyl-2-(4-(methylsulfonyl)phenyl)-1H-benzo[d]imidazol-6-yl)benzyl)-N,N-dimethylpiperidin-4-amine] | 1.2 µM | 0.18 µM | 0.179 µM | 5.6 µM
10 | CCN(C)C1CCN(c2ccc(-c3cc(C)c4nc(-c5ccc(S(C)(=O)=O)cc5)n(C)c4c3)cc2)CC1 [Example 386, 1-(4-(1,4-dimethyl-2-(4-(methylsulfonyl)phenyl)-1H-benzo[d]imidazol-6-yl)phenyl)-N-ethyl-N-methylpiperidin-4-amine] | 1.7 µM | 0.27 µM | 0.267 µM | 4.4 µM
11 | Cc1cc(-c2ccc(CN3C[C@H]4CN(C)C[C@H]4C3)c(F)c2)cc2c1nc(-c1ccc(S(C)(=O)=O)cc1)n2C [Example 388, 6-(3-fluoro-4-((cis-5-methylhexahydropyrrolo[3,4-c]pyrrol-2(1H)-yl)methyl)phenyl)-1,4-dimethyl-2-(4-(methylsulfonyl)phenyl)-1H-benzo[d]imidazole] | 0.4 µM | 0.23 µM | 0.227 µM | 3.2 µM
12 | CCN1CCCN(Cc2ccc(-c3cc(C)c4nc(-c5ccc(S(C)(=O)=O)cc5)n(C)c4c3)cc2F)CC1 [Example 389, 6-(4-((4-ethyl-1,4-diazepan-1-yl)methyl)-3-fluorophenyl)-1,4-dimethyl-2-(4-(methylsulfonyl)phenyl)-1H-benzo[d]imidazole] | 0.3 µM | 0.33 µM | 0.327 µM | 1.8 µM
